Reference: patent US7189747B2, “Method of treating noninflammatory cartilage damage” (Warner-Lambert Company, priority 2000, dated 2007)
Where a name gives a salt, the structure may show the parent alone.

Legend:
[1] = system: Experimental Osteoarthritis in Rabbit; assay: EOA in Rabbit: macroscopic grading of cartilage lesions; type: in vivo
Procedure: (§1) Normal rabbits were anaesthetized and anteromedial incisions of the right knees performed. The anterior cruciate ligaments were visualized and sectioned. The wounds were closed and the animals were housed in individual cages, exercised, and fed ad libitum. Rabbits were given either vehicle (water), gabapentin, or 3-(1-aminomethyl-cyclohexylmethyl)-4h-[1,2,4]oxadiazol-5-one hydrochloride (10 rabbits per group). Each group was dosed three times per day with the gabapentin group receiving 100-mg/kg/dose and the 3-(1-aminomethyl-cyclohexylmethyl)-4h-[1,2,4]oxadiazol-5-one hydrochloride group receiving 50-mg/kg/dose. The rabbits were euthanized 8 weeks after surgery and the proximal end of the tibia and the distal end of the femur were removed from each animal.
The cartilage changes on the femoral condyles and tibial plateaus were graded separately under a dissecting microscope (Stereozoom, Bausch & Lomb, Rochester, N.Y.). The depth of erosion was graded on a scale of 0 to 4 as follows: grade 0=normal surface; Grade 1=minimal fibrillation or a slight yellowish discoloration of the surface; Grade 2=erosion extending into superficial or middle layers only; Grade 3=erosion extending into deep layers; Grade 4=erosion extending to subchondral bone. The surface area changes was measured and expressed in mm^2. Representative specimens will also be used for histologic grading (see below).
(§2) Mean values and SEM was calculated and statistical analysis was done using the Mann-Whitney U-test.

[2] = system: Monosodium Iodoacetate-Induced Osteoarthritis in Rat; assay: MIA Rat: free proteoglycan in knee joint; type: in vivo; details: for treatment of cartilage damage (conclusion from Table 6): MIA Rat, osmotic pump 30 mg/kg/day; for Proteoglycan loss (%) / Inhibition of Proteoglycan loss (%): intravenously by osmotic pump 30 mg/kg/day; for Proteoglycan loss (%): osteoarthritic right knee joint vs contralateral left knee joint, vehicle 18.10 (1b) and 31.90 (2b); for Inhibition of Proteoglycan loss (%): versus vehicle (water)
Description: The incapacitance tester has a chamber on top with an outwardly sloping front wall that supports a rat's front limbs, and two weight sensing pads, one for each hind paw, that facilitates this determination. […] The rats were further administered either a GABA analog or vehicle (in the instant case, water) daily for 14 days. […] It is well within the level of ordinary skill in the pharmaceutical arts to determine a proper dosage of a GABA analog in this model. In the instant experiment, administration of the GABA analog was optionally by oral administration or intravenous administration via an osmotic pump. After 7 and 14 days, the hind-paw weight distribution was again determined. […] Percent inhibition of cartilage damage was calculated as the percent change in hind-paw weight distribution for treated animals versus control animals: In order to measure biochemical or histopathological end points in the MIA Rat model, some of the animals in the above study were then sacrificed, and the amounts of free proteoglycan in both the osteoarthritic right knee joint and the contralateral left knee joint were determined by biochemical analysis. The amount of free proteoglycan in the contralateral left knee joint provides a baseline value for the amount of free proteoglycan in a healthy joint. The amount of proteoglycan in the osteoarthritic right knee joint in animals further administered a GABA analog, and the amount of proteoglycan in the osteoarthritic right knee joint in animals further administered vehicle alone, were independently compared to the amount of proteoglycan in the contralateral left knee joint. The amounts of proteoglycan lost in the osteoarthritic right knee joints were expressed as percent loss of proteoglycan compared to the contralateral left knee joint control. The results are shown below in Table 6 in the column labelled, “Proteoglycan loss (%)”. Also shown in Table 6, in the column labelled “Inhibition of Proteoglycan loss (%)”, is the percent inhibition of proteoglycan loss, which was calculated as {[(proteoglycan loss from joint (%) with vehicle)−(proteoglycan loss from joint with GABA analog)]÷(proteoglycan loss from joint (%) with vehicle)}×100.

[3] = system: Experimental Osteoarthritis in Rabbit; assay: EOA in Rabbit: histological grading of synovial membrane; type: in vivo; details: 150 mg/kg/po/day, 8 weeks after surgery, mean ± SEM
Procedure: as §1
Representative specimens of synovial membrane from the medial and lateral knee compartments were dissected from underlying tissues. The specimens were fixed, embedded, and sectioned (5 um) as above, and stained with hematoxylin-eosin. For each compartment, two synovial membrane specimens were examined for scoring purposes and the highest score from each compartment was retained. The average was calculated and considered as a unit for the whole knee. The severity of synovitis was graded on a scale of 0 to 10 by two independent observers, adding the scores of 3 histologic criteria: synovial lining cell hyperplasia (scale 0–2); villous hyperplasia (scale 0–3); and degree of cellular infiltration by mononuclear and polymorphonuclear cells (scale 0–5): 0 indicates normal structure.
as §2

[4] = system: Monosodium Iodoacetate-Induced Osteoarthritis in Rat; assay: MIA Rat: hind-paw weight distribution; type: in vivo; details: for % Inhibition (of cartilage damage, hind-paw weight distribution): 14 days, Day 14; for preventing or treating cartilage damage (conclusion from Table 5): MIA Rat, doses and routes of Table 5
Description: One end result of the induction of osteoarthritis in this model, as determined by histologic analysis, is the development of an osteoarthritic condition within the affected joint, as characterized by the loss of Toluidine blue staining and formation of osteophytes. Associated with the histologic changes is a concentration-dependent degradation of joint cartilage, as evidenced by affects on hind-paw weight distribution of the limb containing the affected joint, the presence of increased amounts of proteoglycan or hydroxyproline in the joint upon biochemical analysis, or histopathological analysis of the osteoarthritic lesions.
In the MIA Rat model on Day 0, the hind-paw weight differential between the right arthritic joint and the left healthy joint of male Wistar rats (150 g) were determined with an incapacitance tester, model 2KG (Linton Instrumentation, Norfolk, United Kingdom). The incapacitance tester has a chamber on top with an outwardly sloping front wall that supports a rat's front limbs, and two weight sensing pads, one for each hind paw, that facilitates this determination. Then the rats were anesthetized with isofluorine, and the right, hind leg knee joint was injected with 1.0 mg of mono-iodoacetate (“MIA”) through the infrapatellar ligament. […] The rats were further administered either a GABA analog or vehicle (in the instant case, water) daily for 14 days. The GABA analog was typically administered at a dose of 30 mg of GABA analog per kilogram of rat per day (30 mg/kg/day), but may be administered at other doses such as, for example, 10 mg/kg/day, 60 mg/kg/day, or 100 mg/kg/day according to the requirements of the compound being studied. It is well within the level of ordinary skill in the pharmaceutical arts to determine a proper dosage of a GABA analog in this model. In the instant experiment, administration of the GABA analog was optionally by oral administration or intravenous administration via an osmotic pump. After 7 and 14 days, the hind-paw weight distribution was again determined. […] Percent inhibition of cartilage damage was calculated as the percent change in hind-paw weight distribution for treated animals versus control animals:
[formula] wherein: ΔWC is the hind-paw weight differential between the healthy left limb and the arthritic limb of the control animal administered vehicle alone, as measured on Day 14; and • ΔWG is the hind-paw weight differential between the healthy left limb and the arthritic limb of the animal administered a GABA analog, as measured on Day 14.
The results of the hind-paw weight distribution data are shown below in Table 5 in the column labelled “% Inhibition”.

[5] = system: Experimental Osteoarthritis in Rabbit; assay: EOA in Rabbit: histologic grading of cartilage lesions (Mankin scale); type: in vivo; details: for Cells (0–3) / Safranin-O Staining (0–4) / Structure (0–6) / Total (0–13): 150 mg/kg/po/day, 8 weeks after surgery, mean ± SEM
Procedure: as §1
Histologic evaluation was performed on sagittal sections of cartilage from the lesional areas of the femoral condyle and tibial plateau. Serial sections (5 um) were prepared and stained with safranin-O. The severity of OA lesions was graded on a scale of 0–14 by two independent observers using the histologic-histochemical scale of Mankin et al. This scale evaluates the severity of OA lesions based on the loss of safranin-O staining (scale 0–4), cellular changes (scale 0–3), invasion of tidemark by blood vessels (scale 0–1) and structural changes (scale 0–6). On this latter scale, 0 indicates normal cartilage structure and 6 indicates erosion of the cartilage down to the subchondral bone. The scoring system was based on the most severe histologic changes in the multiple sections.
as §2

[6] = 50 mg/kg/dose three times per day, 8 weeks, Table 1
[7] = 30 mg/kg oral, twice daily dosing of the indicated dose
[8] = daily dose 30 mg/kg, osmotic pump

## CS(=O)(=O)NCCC1(CN)CCCCC1.Cl
other
  melting point: 196 to 199 °C

## CC(C)CC(CN)Cc1noc(=S)[nH]1.Cl (stereo not drawn)
other
  melting point: 183 to 185 °C

## Cl.NCC1(Cc2noc(=S)[nH]2)CCCCC1
other
  melting point: 210 to 212 °C

## CCCC(C(C)C)C(CN)CC(=O)O (stereo not drawn) (as salt: HCl)
other
  melting point: 160 to 170 °C

## Cl.NCC1(Cc2noc(=O)[nH]2)CCCCC1 [3-(1-Aminomethyl-cyclohexylmethyl)-4H-[1,2,4]oxadiazol-5-one; hydrochloride]
[1]; [6]
  damage score for both the femoral condyles and the tibial plateaus (in words): reduced
  lesion size on the plateaus (in words): reduced
[1]; 150 mg/kg/po/day (50 mg/kg/dose three times per day), 8 weeks after surgery, mean ± SEM
  Femoral Condyles Size: 6.93 ± 3.1 mm^2
[1]; 150 mg/kg/po/day (50 mg/kg/dose three times per day), 8 weeks after surgery, mean ± SEM, p < 0.002
  Tibial Plateaus Size: 1.95 ± 0.8 mm^2
[1]; 150 mg/kg/po/day (50 mg/kg/dose three times per day), 8 weeks after surgery, mean ± SEM, p < 0.02
  Tibial Plateaus Grade (0–4): 0.55 ± 0.2
[1]; 150 mg/kg/po/day (50 mg/kg/dose three times per day), 8 weeks after surgery, mean ± SEM, p < 0.04
  Femoral Condyles Grade (0–4): 0.67 ± 0.2
[1]; gabapentin 100 mg/kg/dose, test compound 50 mg/kg/dose, three times per day, 8 weeks
  treatment of cartilage damage (conclusion from the EOA in Rabbit study): effective
[2]
  treatment of cartilage damage (conclusion from Table 6): effective
  Proteoglycan loss (%): 6.70%
  Inhibition of Proteoglycan loss (%): 63%
[3]
  Cellular Infiltration (0–5 Scale): 0.35 ± 0.2
  Synovial Lining (0–2 Scale): 0.85 ± 0.1
[3]; p < 0.001
  Villous Hyperplasia (0–3 Scale): 1.15 ± 0.1
[3]; p < 0.002
  Total (0–10): 2.35 ± 0.3
[4]; [7]
  % Inhibition (of cartilage damage, hind-paw weight distribution): 47 ± 20%
[4]
  preventing or treating cartilage damage (conclusion from Table 5): effective
[4]; [8]
  % Inhibition (of cartilage damage, hind-paw weight distribution): 46 ± 10%
[5]; 50 mg/kg/dose three times per day, 8 weeks, text on Table 2 and 3
  histologic damage (in words): reduced histologic damage
[5]; Femoral Condyles
  Cells (0–3): 1.60 ± 0.2
  Safranin-O Staining (0–4): 1.25 ± 0.3
[5]; Femoral Condyles, p < 0.01
  Structure (0–6): 1.35 ± 0.3
[5]; Femoral Condyles, p < 0.04
  Total (0–13): 4.20 ± 0.6
[5]; Tibial Plateaus
  Cells (0–3): 0.60 ± 0.2
  Safranin-O Staining (0–4): 0.18 ± 0.1
  Structure (0–6): 0.90 ± 0.2
[5]; Tibial Plateaus, p > 0.02
  Total (0–13): 1.77 ± 0.4

## Cl.NCC1(Cc2noc(=O)[nH]2)CCCCCC1 [3-(1-aminomethyl-cycloheptylmethyl)-4H-[1,2,4]oxadiazol-5-one hydrochloride]
[4]
  preventing or treating cartilage damage (conclusion from Table 5): effective
[4]; [8]
  % Inhibition (of cartilage damage, hind-paw weight distribution): 62 ± 8%

## CC(C)CC(CN)Cc1noc(=O)[nH]1.Cl (stereo not drawn) [3-(2-Aminomethyl-4-methyl-pentyl)-4H-[1,2,4]oxadiazole-5-one; HCl]
[4]
  preventing or treating cartilage damage (conclusion from Table 5): effective
[4]; [8]
  % Inhibition (of cartilage damage, hind-paw weight distribution): 35 ± 8%

## Cl.NCC(c1noc(=O)[nH]1)C1CCCC1 (stereo not drawn) [3-(2-amino-1-cyclopentyl-ethyl)-4H-[1,2,4]oxadiazol-5-one hydrochloride]
[4]
  preventing or treating cartilage damage (conclusion from Table 5): effective
[4]; [8]
  % Inhibition (of cartilage damage, hind-paw weight distribution): 104%

## Cl.NCC1(CC(=O)O)CC2CCC2C1 (stereo not drawn) [(1α,3α,5α)(3-Aminomethyl-bicyclo[3.2.0]hept-3-yl)-acetic acid hydrochloride]
[2]
  treatment of cartilage damage (conclusion from Table 6): effective
  Proteoglycan loss (%): 16.60%
  Inhibition of Proteoglycan loss (%): 48%
[4]; [8]
  % Inhibition (of cartilage damage, hind-paw weight distribution): −3 ± 34%

## NCC1(Cc2nnn[nH]2)CCCCCC1 [C-[1-(1H-tetrazol-5-ylmethyl)-cycloheptyl]-methylamine]
[4]; [8]
  % Inhibition (of cartilage damage, hind-paw weight distribution): −33 ± 17%

## CC(C)C[C@H](CN)CC(=O)O [Pregabalin, (S)-3-(aminomethyl)-5-methylhexanoic acid, reference compound]
[4]; [7]
  % Inhibition (of cartilage damage, hind-paw weight distribution): −3 ± 12%
